Columns and labels:
[1] = test system: MIA-damaged articular cartilage; experiment: Histological examination (H&E) of MIA-damaged articular cartilage; assay type: in vivo, rat; conditions: 29-mer/HA from day 8 post-MIA for 2 weeks
Procedure: (§1) Adult 10-wk-old male Sprague-Dawley rats (initial body wt=312±11 g) were anesthetized by an intraperitoneal injection of Xylazine (10 mg/kg). After that, their right knees were each treated with a single intraarticular injection of 1 mg of MIA in 25 μl of sterile saline. The solution was injected through the patellar ligament using a 27 G needle with the leg flexed at a 90° angle at the knee. Seven days after MIA injection, the […] were randomly assigned to different experimental groups (n 3, each group). For treatments of the rat model of MIA-induced OA, PDSP peptide was dissolved in 25 μl of 1% HA, and the peptide solvent DMSO was used as a vehicle/HA control.
The knee joints were dissected, and the surrounding soft tissue was removed. Specimens were fixed in a 4% paraformaldehyde (PFA) solution and then were decalcified with Shandon TBD-2 decalcifier (Thermo Scientific, Logan, Utah). The joints were then sectioned mid-sagittally and embedded in paraffin blocks. Sections (5 μm in thickness) were longitudinally cut and stained with hematoxylin and eosin (H&E) or used for immunohistochemical examination. 20 sections per knee were carefully prepared so as to include the most severely degenerated area.
It has been established that rat knee joints injected with MIA can result in extensive chondrocyte degeneration/necrosis at day 7 post-MIA treatment in a rapid and reproducible manner. […]

[2] = test system: chondrogenic cells in damaged articular cartilage; experiment: In vivo DNA synthesis: BrdU / Sox9 staining of damaged articular cartilage, MIA-induced OA; set-up: species or system rat
Procedure: as §1
For detection of cell proliferation, BrdU was reconstituted in DMSO as stock (80 mM). […] DNA synthesis was assessed by BrdU labeling, as detected with anti-BrdU antibodies.
To detect DNA synthesis in vivo, paraffin-embedded joint specimens were deparaffinized in xylene and rehydrated in a graded series of ethanol and then exposed to 1 N HCl at RT for 1 h for subsequent immunohistochemistry. […] Images were captured using a Zeiss epifluorescence microscope with a CCD camera and measured from 20 randomly-selected areas in each sample, and blind quantification was performed in triplicate by manually counting within each section. […]

[3] = test system: rat model of MIA-induced OA; experiment: MIA-induced hind paw weight-bearing shift (incapacitance tester), rat OA model; assay type: in vivo; conditions: for MIA-induced weight shift (hind paw weight-bearing): vehicle/HA 75.9±4.7%
Procedure: as §1
Changes in hind paw weight distributions between the right (osteoarthritic) and left (contralateral control) limbs were used as an index of joint discomfort in the osteoarthritic knee. An incapacitance tester was employed for determination of hind paw weight distributions, as previously described (Bove et al., Weight bearing as a measure of disease progression and efficacy of anti-inflammatory compounds in a model of monosodium iodoacetate-induced osteoarthritis. Osteoarth Cart., 2003; 11:821-830). Rats were placed in an angled plexiglass chamber positioned so that each hind paw rested on a separate force plate. The force exerted by each hind limb (measured in grams) is averaged over a 5-s period. Each data point is the mean of three, 5-s readings. The change in hind paw weight distribution was calculated by determining the difference in the amounts of weights (g) exerted on the tester between the left and right limbs. Results are presented as either the difference in weight bearing between the left (contralateral control) limb and right (osteoarthritic) limbs or as the percent difference between the baseline reading and the post-treatment reading, as calculated using the following equation:
(1−(mean Δweight of treated group/mean Δ weight of vehicle group))×(100)
To investigate whether PDSP (PEDF short peptide) has antinociceptive effects to ameliorate the joint discomfort, 10-wk-old male Sprague-Dawley rats (n=15) were subjected to intraarticular injection of 1 mg of MIA (dissolved in 25 μl of sterile saline) into right joint to induce a maximum degree of weight shift (from right to left leg) and then used to investigate the pharmacologic response of the 29-mer PDSP (SEQ ID NO:1). […]
In the animal study, the 29-mer PDSP variants were formulated into 1% HA to final a concentration of 0.2 mM and then applied by way of a single intraarticular injection each on day 1 and day 8 post-MIA injection. After 29-mer variant treatments for 14 days, the antinociceptive effects of the 29-mer variants (n=3 per group) on MIA-induced hind paw weight-bearing shifts were evaluated with an incapacitance tester.

rat MSCs = experiment: Chondrogenic differentiation of MSCs, GAG by Alcian blue staining; assay type: cell-based; conditions: 10 μM peptide in medium with dexamethasone and TGF-β3, 21 days; DMSO control 0.15±0.024
Procedure: Adult 8-wk-old male Sprague-Dawley rats were anesthetized with an intraperitoneal injection of Xylazine (10 mg/kg). After that, their femurs were aseptically harvested, washed in a mixture of PBS and antibiotics for 5 minutes, and then they were dissected off of all soft tissue, transected at their epiphysis, and their marrow cavity rinsed repeatedly with a mixture of heparin (AGGLUTEX INJ 5000 U/ML 5 ML; working conc. 100 U/ml) and DMEM. The harvested cells were collected, dispersed by pipetting, and centrifuged at 1000×g for 5 minutes at RT. Cell pellets were resuspended with DMEM, and then the cell suspension was transferred to a 15-ml centrifuge tube containing 5 ml of Percoll (1.073 g/ml). […]
For Alcian blue staining, cultures were rinsed twice with PBS, fixed in 4% (w/v) paraformaldehyde for 15 min, and then incubated in 1% (w/v) Alcian blue 8-GX (Sigma) in 0.1 N HCl (pH 1.0) overnight as previously described (Ji Y. H. et al., Quantitative proteomics analysis of chondrogenic differentiation of C3H10T1/2 mesenchymal stem cells by iTRAQ labeling coupled with on-line two-dimensional LC/MS/MS, Mol. Cell. Proteom., 2010, 9(3): 550-564.). For semi-quantitative analysis, Alcian blue-stained cultures were extracted with 6 M guanidine HCl for 2 h at room temperature. The absorption of the extracted dye was measured at 650 nm in a microplate reader (Bio-Rad). […]

SLGAEQRTESIIHRALYYDLISSPDIHGT (in 1% hyaluronic acid; listed as Homo sapiens) [29-mer, PEDF-derived short peptide, human PEDF residues 93-121]
Chondrocytes in cartilage, H&E histology ([1]; vehicle/HA: chondrocytes lost from superficial zone): large numbers of newly generated chondrocytes throughout the cartilage | Cartilage integrity, H&E histology ([1]; vehicle/HA: loss of cartilage integrity): good surface continuity | Sox9 immunostaining of BrdU-positive cells ([2]; 0.2 mM 29-mer/HA, dual immunostaining, FIG. 5A): BrdU-positive cells were also Sox9 positive | BrdU-positive cells per field of cartilage region ([2]; 0.2 mM peptide in 1% HA, 14 days treatment, vehicle/HA 7±3): 346±57 | MIA-induced weight shift (hind paw weight-bearing) ([3]; group II: 0.2 mM 29-mer in 1% HA, intraarticular on day 1, 4, 8, 12 (twice per week), 14 days): 63.3±12.5% | MIA-induced weight shift (hind paw weight-bearing) ([3]; group III: 29-mer alone (bolus, without HA), intraarticular day 1, 4, 8, 12): 77.2±1.2% | MIA-induced weight shift (hind paw weight-bearing) ([3]; group IV: 29-mer/HA, intraarticular once on day 1 and day 8 (once per week), 14 days): 58.1±4.6% | MIA-induced hind paw weight-bearing shift ([3]; variant study (FIG. 4): 0.2 mM peptide in 1% HA, intraarticular day 1 and day 8, after 14 days, vehicle/HA 47.1±3.7%): 22.0±0.66% | Alcian blue-positive material (GAG) at OD 650 nm (rat MSCs): 0.34±0.013

From patent US20210221862A1, “APPLICATION OF PEDF-DERIVED SHORT PEPTIDES IN THE TREATMENT OF OSTEOARTHRITIS” (BRIM Biotechnology, Inc., priority 2018, published 2021)
